Where “and” joins values, the source holds several entries; their conditions need not be identical. Identical values can stand only once.
Test system: cerebellum
Test: Ceramide, SM and HexCer levels in cerebellum;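 on Cer 18:1/18:0 content of cerebellum: pmol per mg cerebellum tissue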;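 on Cer 18:1/24:0 content of cerebellum: pmol per mg cerebellum tissue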;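 on Cer 18:1/24:1 content of cerebellum: pmol per mg cerebellum tissue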;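 on Cer 18:2/18:0 content of cerebellum: pmol per mg cerebellum tissue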;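 on HexCer 18:1 content of cerebellum: pmol per mg cerebellum tissue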;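 on HexCer 20:1 content of cerebellum: pmol per mg cerebellum tissue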;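 on HexCer 22:1 content of cerebellum: pmol per mg cerebellum tissue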;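 on HexCer 24:0 content of cerebellum: pmol per mg cerebellum tissue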;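 on SM 32:1 content of cerebellum: pmol per mg cerebellum tissue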;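 on SM 34:2 content of cerebellum: pmol per mg cerebellum tissue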;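 on SM 36:1 content of cerebellum: pmol per mg cerebellum tissue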;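 on SM 36:2 content of cerebellum: pmol per mg cerebellum tissue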;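 on SM 40:1 content of cerebellum: pmol per mg cerebellum tissue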;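 on SM 40:2 content of cerebellum: pmol per mg cerebellum tissue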;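 on SM 42:1 content of cerebellum: pmol per mg cerebellum tissue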;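 on SM 42:2 content of cerebellum: pmol per mg cerebellum tissue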
Assay type: in vivo, mice
Settings: individual mice, raw data for Supplementary Figure 7
From the text: Supplementary Figure 7. […] Ceramide, SM, and HexCer […]
levels in the cerebellum of vehicle- or P053-treated mice on a chow or HFD. N = 10 mice per group, except for chow vehicle group (n = 9). Mean ± SEM shown. No lipids were […]
comparisons. C18:0 HexCer was 45% lower in the P053-treated compared to the vehicle-treated HFD group (unadjusted P value = 0.02; adjusted value P = 0.16). Raw data for these figures is provided in Supplementary Data File 1.

C[C@@](N)(CO)CCc1ccc(OCc2ccc(Cl)c(Cl)c2)cc1 [P053, (S)-2-amino-4-(4-(3,4-dichlorobenzyloxy)phenyl)-2-methylbutan-1-ol]
Cer 18:1/16:0 content of cerebellum (Chow + P053): 3.617 and 2.396 and 2.239 and 1.878 and 1.763 and 7.091 and 4.235 and 4.186 and 2.745 and 2.729 | Cer 18:1/18:0 content of cerebellum (Chow + P053): 141.97 and 85.5119 and 108.595 and 104.792 and 97.4561 and 431.392 and 196.381 and 275.197 and 135.779 and 146.615 | Cer 18:1/20:0 content of cerebellum (Chow + P053): 10.8793 and 8.155 and 10.4755 and 10.5072 and 6.176 and 36.1314 and 20.5959 and 26.7359 and 12.6268 and 16.6128 | Cer 18:1/22:0 content of cerebellum (Chow + P053): 14.5276 and 15.0246 and 22.6132 and 25.2761 and 10.65 and 51.7937 and 37.5604 and 49.7318 and 29.1858 and 28.3511 | Cer 18:1/24:0 content of cerebellum (Chow + P053): 25.164 and 39.1513 and 61.4338 and 64.1688 and 24.2127 and 137.911 and 88.346 and 158.631 and 89.2495 and 92.5091 | Cer 18:1/24:1 content of cerebellum (Chow + P053): 194.92 and 106.297 and 150.541 and 182.076 and 61.3337 and 311.08 and 260.185 and 253.268 and 147.127 and 119.244 | Cer 18:2/18:0 content of cerebellum (Chow + P053): 6.1678 and 7.469 and 7.847 and 9.952 and 5.015 and 15.2517 and 13.7543 and 19.4608 and 12.754 and 10.8001 | HexCer 16:0 content of cerebellum (Chow + P053): 2.618 and 11.905 and 12.0787 and 17.3566 and 8.981 and 4.913 and 10.616 and 11.083 and 11.1713 and 10.2043 | HexCer 18:0 content of cerebellum (Chow + P053): 28.8093 and 286.922 and 231.007 and 375.961 and 165.705 and 81.8257 and 140.616 and 234.577 and 281.805 and 232.737 | HexCer 18:1 content of cerebellum (Chow + P053): 4.066 and 35.919 and 27.4449 and 39.8082 and 28.3147 and 12.0017 and 18.6127 and 33.0051 and 39.5714 and 38.2232 | HexCer 20:0 content of cerebellum (Chow + P053): 5.379 and 62.6592 and 42.0891 and 61.8563 and 40.4642 and 16.7817 and 19.6222 and 44.5602 and 56.0811 and 52.6344 | HexCer 20:1 content of cerebellum (Chow + P053): 0.8503 and 3.88 and 2.4108 and 3.569 and 3.668 and 1.176 and 1.073 and 2.879 and 4.092 and 4.073 | HexCer 22:0 content of cerebellum (Chow + P053): 103.858 and 933.202 and 709.42 and 853.076 and 744.844 and 421.086 and 403.774 and 821.636 and 996.669 and 1011.42 | HexCer 22:1 content of cerebellum (Chow + P053): 67.4582 and 171.007 and 113.764 and 201.906 and 106.093 and 35.9387 and 77.6418 and 92.6997 and 107.257 and 90.5981 | HexCer 24:0 content of cerebellum (Chow + P053): 564.043 and 4618.59 and 3773.48 and 4286.71 and 3653.78 and 2395.46 and 2157.01 and 3975.05 and 5039.63 and 4758.34 | HexCer 24:1 content of cerebellum (Chow + P053): 3233.35 and 7019.2 and 5377.98 and 7770.21 and 6449.16 and 3511.89 and 4048.72 and 5184.76 and 6290.34 and 5656.27 | SM 32:1 content of cerebellum (Chow + P053): 7.744 and 10.8885 and 9.082 and 12.3443 and 9.858 and 7.664 and 8.692 and 8.551 and 8.187 and 8.4615 | SM 34:1 content of cerebellum (Chow + P053): 82.5407 and 146.305 and 94.5019 and 129.483 and 151.913 and 73.8551 and 80.0167 and 90.7654 and 102.782 and 113.569 | SM 34:2 content of cerebellum (Chow + P053): 7.207 and 9.9108 and 8.648 and 11.4512 and 8.062 and 5.446 and 4.538 and 7.185 and 8.297 and 8.329 | SM 36:1 content of cerebellum (Chow + P053): 194.844 and 464.875 and 291.749 and 380.257 and 596.135 and 225.303 and 199.676 and 294.675 and 315.392 and 396.468 | SM 36:2 content of cerebellum (Chow + P053): 59.5005 and 77.3429 and 59.1592 and 95.459 and 61.3204 and 42.7823 and 27.3474 and 61.4896 and 55.0172 and 56.8047 | SM 38:1 content of cerebellum (Chow + P053): 38.445 and 174.02 and 119.141 and 145.805 and 204.374 and 106.701 and 86.1831 and 141.777 and 157.803 and 199.243 | SM 38:2 content of cerebellum (Chow + P053): 7.207 and 11.8634 and 6.682 and 10.3765 and 10.2552 and 3.609 and 2.903 and 5.065 and 7.083 and 7.8 | SM 40:1 content of cerebellum (Chow + P053): 51.2464 and 304.001 and 220.117 and 327.562 and 242.07 and 125.331 and 158.353 and 223.684 and 258.853 and 295.067 | SM 40:2 content of cerebellum (Chow + P053): 51.3559 and 98.4003 and 64.6125 and 113.428 and 67.3016 and 27.1328 and 51.0354 and 51.6641 and 60.1105 and 65.3939 | SM 42:1 content of cerebellum (Chow + P053): 47.6271 and 371.292 and 288.623 and 388.513 and 255.841 and 158.489 and 203.273 and 296.49 and 332.331 and 358.331 | SM 42:2 content of cerebellum (Chow + P053): 660.19 and 1132.13 and 807.257 and 1283.01 and 802.501 and 434.477 and 634.337 and 659.388 and 719.281 and 714.687 | Cer 18:1/16:0 content of cerebellum (HFD + P053): 2.762 and 1.437 and 5.744 and 2.262 and 3.928 and 1.548 and 1.88 and 7.07 and 1.652 and 5.347 | Cer 18:1/18:0 content of cerebellum (HFD + P053): 128.546 and 82.2707 and 288.623 and 116.318 and 172.743 and 86.572 and 112.409 and 311.979 and 100.825 and 239.53
